These results are taken from doi:10.1101/2024.08.19.608619, “Discovery of potent SARS-CoV-2 nsp3 macrodomain inhibitors uncovers lack of translation to cellular antiviral response” (bioRxiv, 2024).

The solubility is how much of the substance goes into solution per volume. A lower solubility goes with little dissolved substance.

Data set [1] deals with T1, PKBα(h) (Homo sapiens, UniProt P31749).
T1 construct: gene AKT1
Briefly: biochemical. Also noted: In vitro kinase panel profiling, per cent remaining kinase activity at 10 uM. The following applies: atp_concentration=155, read-out: % of control remaining. The text has this:
(§1) We derisk potential for off-target activity by profiling the compound in a CEREP panel, a standard secondary pharmacology assessment, as well as a kinase panel to derisk a potential hinge-binding motif in our leads, and a PARP panel to derisk activity against human […]. Reassuringly, the compounds are selective, with the only off-targets being moderate human CHRM2 and KOR receptors activity associated with ASAP-0011198.

Data set [2] concerns the target T2, MSK2(h) (Homo sapiens, UniProt O75676).
T2 construct: gene RPS6KA4
The data set can be described thus: biochemical. More on the design: In vitro kinase panel profiling, per cent remaining kinase activity at 10 uM. The following applies: atp_concentration=45, read-out: % of control remaining.
Description: as §1

Data set [3] has as its target T3, CaMKI(h) (Homo sapiens, UniProt Q14012).
T3 construct: gene CAMK1
Briefly: biochemical. The following applies: atp_concentration=200, read-out: % of control remaining. More on the design: In vitro kinase panel profiling, per cent remaining kinase activity at 10 uM.
Description: as §1

Data set [4] concerns the target T4, CK2α2(h) (Homo sapiens, UniProt P19784).
T4 construct: gene CSNK2A2
Briefly: biochemical. Also noted: In vitro kinase panel profiling, per cent remaining kinase activity at 10 uM. The following applies: atp_concentration=10, read-out: % of control remaining.
Description: as §1

Data set [5] concerns the target T5, Mnk2(h) (Homo sapiens, UniProt Q9HBH9).
T5 construct: gene MKNK2
Briefly: biochemical. More on the design: In vitro kinase panel profiling, per cent remaining kinase activity at 10 uM. The following applies: atp_concentration=120, read-out: % of control remaining.
Description: as §1

Data set [6] has as its target T6, MLK1(h) (Homo sapiens, UniProt P80192).
T6 construct: gene MAP3K9
Briefly: biochemical. Also noted: In vitro kinase panel profiling, per cent remaining kinase activity at 10 uM. The following applies: atp_concentration=45, read-out: % of control remaining.
Description: as §1

The target in data set [7] is T7, AMPKα1(h) (Homo sapiens, UniProt Q13131).
T7 construct: gene PRKAA1
The data set can be described thus: biochemical. More on the design: In vitro kinase panel profiling, per cent remaining kinase activity at 10 uM. The following applies: atp_concentration=45, read-out: % of control remaining.
Description: as §1

Data set [8] deals with T8, Abl(h) (Homo sapiens, UniProt P00519).
T8 construct: gene ABL1
The data set can be described thus: biochemical. Also noted: In vitro kinase panel profiling, per cent remaining kinase activity at 10 uM. The following applies: atp_concentration=45, read-out: % of control remaining.
Description: as §1

Data set [9] deals with T9, CK1γ1(h) (Homo sapiens, UniProt Q9HCP0).
T9 construct: gene CSNK1G1
Briefly: biochemical. Also noted: In vitro kinase panel profiling, per cent remaining kinase activity at 10 uM. The following applies: atp_concentration=15, read-out: % of control remaining.
Description: as §1

Data set [10] has as its target T10, PI3 Kinase (p110β/p85α)(h) (Homo sapiens, UniProt P42338).
T10 construct: gene PIK3CB
Briefly: biochemical. Also noted: In vitro kinase panel profiling, per cent remaining kinase activity at 10 uM. The following applies: atp_concentration=200, read-out: % of control remaining.
Description: as §1

Data set [11] addresses T11, MST1(h) (Homo sapiens, UniProt Q13043).
T11 construct: gene STK4
T11 sequence (Q13043 1-487): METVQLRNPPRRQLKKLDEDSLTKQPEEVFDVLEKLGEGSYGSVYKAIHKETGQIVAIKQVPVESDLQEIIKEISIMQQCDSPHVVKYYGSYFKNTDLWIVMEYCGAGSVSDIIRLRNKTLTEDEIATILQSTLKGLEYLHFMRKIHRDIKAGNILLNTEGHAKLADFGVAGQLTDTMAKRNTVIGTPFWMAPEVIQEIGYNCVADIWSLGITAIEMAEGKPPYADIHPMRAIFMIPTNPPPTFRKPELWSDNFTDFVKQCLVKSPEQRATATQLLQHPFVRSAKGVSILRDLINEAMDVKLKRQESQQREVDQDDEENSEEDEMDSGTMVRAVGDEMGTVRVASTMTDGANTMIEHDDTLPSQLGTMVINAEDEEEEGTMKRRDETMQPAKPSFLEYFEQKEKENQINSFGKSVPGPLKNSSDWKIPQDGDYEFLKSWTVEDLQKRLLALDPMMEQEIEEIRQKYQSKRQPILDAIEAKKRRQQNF
Briefly: biochemical. Also noted: In vitro kinase panel profiling, per cent remaining kinase activity at 10 uM. The following applies: atp_concentration=90, read-out: % of control remaining.
Description: as §1

Data set [12] concerns the target T12, NEK2(h) (Homo sapiens, UniProt P51955).
T12 sequence (P51955 1-445): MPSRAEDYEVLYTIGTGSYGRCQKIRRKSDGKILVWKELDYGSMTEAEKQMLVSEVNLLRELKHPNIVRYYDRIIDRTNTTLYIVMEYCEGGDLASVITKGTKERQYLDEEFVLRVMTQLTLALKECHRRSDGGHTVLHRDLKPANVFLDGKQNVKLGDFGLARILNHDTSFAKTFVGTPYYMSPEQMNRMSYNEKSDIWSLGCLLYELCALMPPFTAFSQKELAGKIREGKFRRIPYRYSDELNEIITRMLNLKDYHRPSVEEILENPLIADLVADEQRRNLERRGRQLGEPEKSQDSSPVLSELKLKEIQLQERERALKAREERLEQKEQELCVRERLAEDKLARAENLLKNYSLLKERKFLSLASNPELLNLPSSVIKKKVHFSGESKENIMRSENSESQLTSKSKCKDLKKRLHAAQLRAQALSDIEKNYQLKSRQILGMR
Briefly: biochemical. More on the design: In vitro kinase panel profiling, per cent remaining kinase activity at 10 uM. The following applies: atp_concentration=120, read-out: % of control remaining.
Description: as §1

The target in data set [13] is T13, SAPK2a(h) (Homo sapiens, UniProt Q16539).
T13 construct: gene MAPK14
Briefly: biochemical. Also noted: In vitro kinase panel profiling, per cent remaining kinase activity at 10 uM. The following applies: atp_concentration=90, read-out: % of control remaining.
Description: as §1

Data set [14] can be described thus: Permeability Papp (AB) MDR1/MDCKII. The following applies: In vitro MDR1-MDCKII permeability, mean; for perc_recovery_a_to_b_mean: recovery A to B; for papp_a_to_b_mean: A to B.
A short description of data set [15]: In vitro kinetic solubility. The following applies: In vitro kinetic solubility, ph 7.4.
Data set [16] can be described thus: LogD. The following applies: pH 7.4, In vitro LogD.

Molecules are shown by their SMILES. ≈ marks a conversion by molar mass, not a printed value. Where “and” joins values, the source holds several entries; their conditions need not be identical. Equal entries are not always repeated. Where two headings read alike, the source gives them in different places.

T4 sequence (P19784 whole entry): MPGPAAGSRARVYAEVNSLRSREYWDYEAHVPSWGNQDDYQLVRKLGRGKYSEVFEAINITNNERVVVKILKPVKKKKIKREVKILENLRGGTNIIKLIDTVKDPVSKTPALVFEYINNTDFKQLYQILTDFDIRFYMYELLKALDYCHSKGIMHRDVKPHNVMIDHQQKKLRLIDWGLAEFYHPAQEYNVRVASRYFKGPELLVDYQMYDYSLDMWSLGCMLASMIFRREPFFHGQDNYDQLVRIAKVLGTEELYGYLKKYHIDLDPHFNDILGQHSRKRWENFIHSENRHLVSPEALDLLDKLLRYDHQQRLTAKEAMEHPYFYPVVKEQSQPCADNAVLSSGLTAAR
T7 sequence (Q13131 whole entry): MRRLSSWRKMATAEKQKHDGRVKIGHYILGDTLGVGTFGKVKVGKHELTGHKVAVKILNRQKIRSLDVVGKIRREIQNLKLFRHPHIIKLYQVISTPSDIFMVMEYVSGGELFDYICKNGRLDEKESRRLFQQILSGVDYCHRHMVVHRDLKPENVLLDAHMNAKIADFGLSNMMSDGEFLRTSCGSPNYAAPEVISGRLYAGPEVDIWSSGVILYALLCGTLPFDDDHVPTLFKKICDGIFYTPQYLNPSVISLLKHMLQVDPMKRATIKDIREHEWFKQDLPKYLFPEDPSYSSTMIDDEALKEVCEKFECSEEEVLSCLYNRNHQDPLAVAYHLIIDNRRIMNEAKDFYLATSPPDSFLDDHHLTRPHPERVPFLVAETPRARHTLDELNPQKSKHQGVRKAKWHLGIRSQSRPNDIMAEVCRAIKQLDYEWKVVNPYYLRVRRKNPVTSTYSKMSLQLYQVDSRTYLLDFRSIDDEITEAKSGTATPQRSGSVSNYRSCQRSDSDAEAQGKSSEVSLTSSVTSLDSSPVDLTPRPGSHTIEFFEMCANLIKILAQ
T7 sequence (P54619 whole entry partner): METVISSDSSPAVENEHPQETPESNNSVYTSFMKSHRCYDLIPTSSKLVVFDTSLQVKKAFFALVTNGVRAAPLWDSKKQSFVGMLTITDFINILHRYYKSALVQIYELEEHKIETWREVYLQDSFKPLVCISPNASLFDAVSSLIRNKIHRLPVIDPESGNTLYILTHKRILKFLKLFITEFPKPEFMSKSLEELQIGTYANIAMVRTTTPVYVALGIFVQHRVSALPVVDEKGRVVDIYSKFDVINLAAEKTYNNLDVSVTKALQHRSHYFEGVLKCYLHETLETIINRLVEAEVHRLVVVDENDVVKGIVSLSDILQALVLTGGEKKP
T7 sequence (Q9Y478 whole entry partner): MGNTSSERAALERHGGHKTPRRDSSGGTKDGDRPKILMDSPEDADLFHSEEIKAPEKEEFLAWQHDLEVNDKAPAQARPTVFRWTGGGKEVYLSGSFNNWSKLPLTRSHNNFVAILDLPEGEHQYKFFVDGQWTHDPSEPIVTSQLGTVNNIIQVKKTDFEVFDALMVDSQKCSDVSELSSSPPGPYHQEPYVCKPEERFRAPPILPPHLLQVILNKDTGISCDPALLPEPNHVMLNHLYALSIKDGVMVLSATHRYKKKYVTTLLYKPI
T9 sequence (Q9HCP0 whole entry): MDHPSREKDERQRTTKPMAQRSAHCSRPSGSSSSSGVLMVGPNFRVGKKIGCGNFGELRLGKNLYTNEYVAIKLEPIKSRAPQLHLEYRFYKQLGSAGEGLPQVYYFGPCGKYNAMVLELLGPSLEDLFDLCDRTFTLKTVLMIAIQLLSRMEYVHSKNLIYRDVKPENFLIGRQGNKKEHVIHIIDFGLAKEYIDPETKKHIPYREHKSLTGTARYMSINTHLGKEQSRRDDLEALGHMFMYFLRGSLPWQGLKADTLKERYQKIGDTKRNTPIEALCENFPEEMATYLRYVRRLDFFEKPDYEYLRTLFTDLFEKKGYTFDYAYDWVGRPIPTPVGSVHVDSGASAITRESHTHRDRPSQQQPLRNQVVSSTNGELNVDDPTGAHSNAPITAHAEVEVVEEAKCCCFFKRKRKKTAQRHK
T10 sequence (P42338 whole entry): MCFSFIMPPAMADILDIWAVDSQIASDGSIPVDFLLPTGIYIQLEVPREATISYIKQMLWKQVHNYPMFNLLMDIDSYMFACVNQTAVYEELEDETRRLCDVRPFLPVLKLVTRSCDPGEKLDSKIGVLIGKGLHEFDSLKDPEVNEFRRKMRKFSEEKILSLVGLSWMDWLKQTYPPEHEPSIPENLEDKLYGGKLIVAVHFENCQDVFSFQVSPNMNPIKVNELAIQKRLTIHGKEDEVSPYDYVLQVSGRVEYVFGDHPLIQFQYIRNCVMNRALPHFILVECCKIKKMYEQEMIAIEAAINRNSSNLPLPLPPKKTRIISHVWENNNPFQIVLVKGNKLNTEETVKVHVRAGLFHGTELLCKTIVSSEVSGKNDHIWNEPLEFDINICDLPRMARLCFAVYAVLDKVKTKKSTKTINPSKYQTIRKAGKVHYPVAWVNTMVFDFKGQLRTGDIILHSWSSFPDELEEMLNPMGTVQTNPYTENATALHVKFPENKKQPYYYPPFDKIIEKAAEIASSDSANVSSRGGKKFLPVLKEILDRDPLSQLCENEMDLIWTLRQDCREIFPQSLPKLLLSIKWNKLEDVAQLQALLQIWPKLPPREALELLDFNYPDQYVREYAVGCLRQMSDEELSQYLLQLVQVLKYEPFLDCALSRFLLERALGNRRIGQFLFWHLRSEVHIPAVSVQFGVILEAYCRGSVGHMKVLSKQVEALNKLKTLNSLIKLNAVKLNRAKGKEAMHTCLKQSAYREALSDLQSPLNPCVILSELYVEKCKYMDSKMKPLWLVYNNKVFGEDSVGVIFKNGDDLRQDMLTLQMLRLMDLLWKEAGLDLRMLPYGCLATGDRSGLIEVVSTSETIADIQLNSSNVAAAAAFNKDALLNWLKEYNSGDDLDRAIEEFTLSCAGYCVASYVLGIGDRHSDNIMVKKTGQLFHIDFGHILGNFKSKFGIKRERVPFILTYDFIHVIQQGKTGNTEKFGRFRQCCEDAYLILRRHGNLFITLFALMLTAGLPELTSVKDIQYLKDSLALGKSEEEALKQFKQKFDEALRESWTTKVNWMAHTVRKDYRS
T10 sequence (P27986 whole entry partner): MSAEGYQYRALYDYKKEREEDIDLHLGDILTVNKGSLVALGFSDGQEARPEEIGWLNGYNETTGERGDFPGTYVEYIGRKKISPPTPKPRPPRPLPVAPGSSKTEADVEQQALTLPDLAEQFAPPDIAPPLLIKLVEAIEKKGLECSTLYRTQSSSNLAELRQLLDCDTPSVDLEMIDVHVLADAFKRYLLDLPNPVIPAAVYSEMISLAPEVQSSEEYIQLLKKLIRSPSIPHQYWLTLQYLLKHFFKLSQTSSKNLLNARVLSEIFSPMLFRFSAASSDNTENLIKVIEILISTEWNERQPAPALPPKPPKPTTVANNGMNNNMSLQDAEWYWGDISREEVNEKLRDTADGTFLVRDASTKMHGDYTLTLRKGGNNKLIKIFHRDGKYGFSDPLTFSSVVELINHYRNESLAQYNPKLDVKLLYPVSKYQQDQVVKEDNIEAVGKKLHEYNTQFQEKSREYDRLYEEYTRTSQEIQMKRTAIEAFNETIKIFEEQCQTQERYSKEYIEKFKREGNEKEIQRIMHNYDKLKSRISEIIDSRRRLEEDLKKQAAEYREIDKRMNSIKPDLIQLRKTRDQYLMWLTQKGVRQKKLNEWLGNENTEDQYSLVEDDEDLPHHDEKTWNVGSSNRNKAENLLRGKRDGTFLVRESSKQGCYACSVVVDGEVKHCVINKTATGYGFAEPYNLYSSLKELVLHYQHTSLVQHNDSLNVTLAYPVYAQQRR
T1 sequence (P31749 whole entry): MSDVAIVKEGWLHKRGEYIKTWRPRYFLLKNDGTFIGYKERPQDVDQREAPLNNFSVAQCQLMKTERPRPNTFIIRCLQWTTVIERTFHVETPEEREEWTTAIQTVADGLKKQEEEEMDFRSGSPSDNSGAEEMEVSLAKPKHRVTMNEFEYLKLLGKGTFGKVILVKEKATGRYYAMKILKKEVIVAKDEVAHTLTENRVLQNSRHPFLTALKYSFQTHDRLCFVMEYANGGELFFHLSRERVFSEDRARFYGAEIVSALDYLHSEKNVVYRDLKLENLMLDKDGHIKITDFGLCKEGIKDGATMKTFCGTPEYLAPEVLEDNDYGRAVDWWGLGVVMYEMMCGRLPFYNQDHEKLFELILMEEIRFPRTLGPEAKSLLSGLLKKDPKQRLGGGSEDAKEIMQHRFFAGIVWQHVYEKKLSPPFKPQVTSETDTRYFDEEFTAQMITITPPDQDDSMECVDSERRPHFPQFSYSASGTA
T5 sequence (Q9HBH9 whole entry): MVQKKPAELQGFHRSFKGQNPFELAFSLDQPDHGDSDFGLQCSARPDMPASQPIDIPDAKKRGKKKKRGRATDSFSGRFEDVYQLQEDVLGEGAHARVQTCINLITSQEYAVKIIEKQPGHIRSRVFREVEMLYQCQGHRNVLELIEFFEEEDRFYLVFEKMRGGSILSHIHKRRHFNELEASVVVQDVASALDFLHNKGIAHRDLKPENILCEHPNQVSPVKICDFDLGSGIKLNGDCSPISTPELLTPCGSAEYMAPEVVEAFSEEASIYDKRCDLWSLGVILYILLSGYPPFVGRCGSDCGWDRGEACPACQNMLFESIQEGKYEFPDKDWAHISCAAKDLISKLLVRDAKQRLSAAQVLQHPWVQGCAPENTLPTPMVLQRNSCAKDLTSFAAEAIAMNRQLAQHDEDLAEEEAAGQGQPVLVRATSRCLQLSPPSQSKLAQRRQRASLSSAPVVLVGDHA

As to `CC(C)C(Nc1ncnc2[nH]ccc12)c1ccc2c(c1)S(=O)(=O)CCC2` (centres unmarked) [ASAP-0008327], the remaining activity at 10 µM in data set [1] (batch_name=ASAP-0008327-001) came to 96%; in data set [2] (batch_name=ASAP-0008327-001), 99%; in data set [3] (batch_name=ASAP-0008327-001) it was 94%; in data set [4] (batch_name=ASAP-0008327-001) it was 90%; in data set [5] (batch_name=ASAP-0008327-001), 89%; in data set [6] (batch_name=ASAP-0008327-001) it was 81%. The remaining activity at 10 µM in [7] (batch_name=ASAP-0008327-001) was 94%; in data set [8] (batch_name=ASAP-0008327-001) it was 93%; in [9] (batch_name=ASAP-0008327-001) it was 102%; in [10] (batch_name=ASAP-0008327-001), 101%; in [11] (batch_name=ASAP-0008327-001) it was 88%; in [12] (batch_name=ASAP-0008327-001) it was 118%. Besides, the remaining activity at 10 µM in data set [13] (batch_name=ASAP-0008327-001) came out at 108%. Also, in data set [14], the perc_recovery_a_to_b_mean was found to be 87.0%. This molecule also displayed a solubility in [15] (pH 7.4, solubility_mean) of 385 µM (≈ 143 µg/mL). The molecule also registered a logd in data set [16] (pH 7.4, logd) of 2.5.
Regarding `COc1ccc([C@@H](Cc2nnn[nH]2)NC(=O)c2ncnc3[nH]ccc23)cc1` [ASAP-0008340], the remaining activity at 10 µM in data set [1] (batch_name=ASAP-0008340-001) was determined as 94%; in [2] (batch_name=ASAP-0008340-001), 92%; in [3] (batch_name=ASAP-0008340-001) it was 100%; in [4] (batch_name=ASAP-0008340-001), 88%; in data set [5] (batch_name=ASAP-0008340-001), 84%; in data set [6] (batch_name=ASAP-0008340-001), 85%. In addition, the remaining activity at 10 µM in [7] (batch_name=ASAP-0008340-001) was found to be 101%; in [8] (batch_name=ASAP-0008340-001), 98%; in data set [9] (batch_name=ASAP-0008340-001), 95%; in data set [10] (batch_name=ASAP-0008340-001) it was 102%; in [11] (batch_name=ASAP-0008340-001) it was 98%; in [12] (batch_name=ASAP-0008340-001), 100%. For the same molecule, the remaining activity at 10 µM in data set [13] (batch_name=ASAP-0008340-001) is 100%. The papp_a_to_b_mean in data set [14] amounted to 1.39 ×10⁻⁶ cm/s. In data set [14], the perc_recovery_a_to_b_mean is listed as 89.1%. The solubility_mean in [15] came out at 395 µM (≈ 144 µg/mL). The same molecule showed a logd in [16] of -0.1.
On to `CC(C)[C@@H](Nc1ncnc2[nH]c(-c3cnn(C)c3C#N)cc12)c1ccc2c(n1)OCCO2` [ASAP-0008418], for which the remaining activity at 10 µM in data set [1] (batch_name=ASAP-0008418-001) turned out to be 95%; in [2] (batch_name=ASAP-0008418-001), 103%; in data set [3] (batch_name=ASAP-0008418-001) it was 104%; in data set [4] (batch_name=ASAP-0008418-001), 86%; in data set [5] (batch_name=ASAP-0008418-001) it was 77%; in [6] (batch_name=ASAP-0008418-001) it was 81%. The remaining activity at 10 µM in data set [7] (batch_name=ASAP-0008418-001) is 116%; in data set [8] (batch_name=ASAP-0008418-001), 52%; in data set [9] (batch_name=ASAP-0008418-001), 87%; in [10] (batch_name=ASAP-0008418-001), 92%; in data set [11] (batch_name=ASAP-0008418-001), 103%; in data set [12] (batch_name=ASAP-0008418-001), 94%. In addition, the remaining activity at 10 µM in data set [13] (batch_name=ASAP-0008418-001) stood at 103%. For the same molecule, the papp_a_to_b_mean in data set [14] is 12.8 ×10⁻⁶ cm/s and 21.3 ×10⁻⁶ cm/s. In addition, in [14], the perc_recovery_a_to_b_mean is 82.0% and 88.6%. In [15], the solubility_mean was 89 µM and 60 µM. Further, the logd in data set [16] was 3.4 and 3.6.
